Experimental data: patent US20260176289A1, “SMALL MOLECULE INHIBITORS OF KRAS PROTEINS” (Merck Sharp & Dohme LLC, priority 2022, published 2026)
Where two headings read alike, the source gives them in different places.

Key:
KRAS-WT = KRAS-WT (Homo sapiens, UniProt P01116); assay: SOS-catalyzed nucleotide exchange assay (Procedure A, TR-FRET), KRAS-WT; format: biochemical; conditions: nucleotide exchange, read-out: KRAS WT GNE IC50
Method in brief: (§1)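 Compounds (10-point, 3-fold) were preincubated 60 min at room temperature with a biotinylated RAS/Bodipy-GDP/Tb-streptavidin TR-FRET complex. Exchange was started with human SOS plus 3 mM GTP. RAS/SOS: G12C 3/40 nM, WT 1/40 nM, NRAS 1.25/40 nM (60 min); G12V 1.25/160 nM (90 min). The 520/495 ratio was fit four-parameter.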

[1] = target: KRAS-G12C (C51S/C80L/C118S) (Homo sapiens, UniProt P01116, C118S/C51S/C80L/G12C); assay: SOS-catalyzed nucleotide exchange assay (Procedure A, TR-FRET), KRAS-G12C; format: biochemical; conditions: nucleotide exchange, Procedure A; read-out: KRAS G12C GNE IC50
KRAS-G12C (C51S/C80L/C118S), sequence (P01116 with tags, fused parts or gaps isoform P01116-2 G12C/C51S/C80L/C118S): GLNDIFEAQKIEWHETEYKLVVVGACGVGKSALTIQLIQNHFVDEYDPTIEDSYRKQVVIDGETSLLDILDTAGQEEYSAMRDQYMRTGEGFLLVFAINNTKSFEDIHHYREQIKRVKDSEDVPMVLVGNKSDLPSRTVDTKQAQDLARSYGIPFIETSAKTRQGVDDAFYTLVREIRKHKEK
Method in brief: as §1

KRAS-G12D = KRAS-G12D (Homo sapiens, UniProt P01116, G12D); assay: SOS-catalyzed nucleotide exchange assay (Procedure A, TR-FRET), KRAS-G12D; format: biochemical; conditions: nucleotide exchange, read-out: KRAS G12D GNE IC50
KRAS-G12D, sequence (P01116 with tags, fused parts or gaps isoform P01116-2 G12D): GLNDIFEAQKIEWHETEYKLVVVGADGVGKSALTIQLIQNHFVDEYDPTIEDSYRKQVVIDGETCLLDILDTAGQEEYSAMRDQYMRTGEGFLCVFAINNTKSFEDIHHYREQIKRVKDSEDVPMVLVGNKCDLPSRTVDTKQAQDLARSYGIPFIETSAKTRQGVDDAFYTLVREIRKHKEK
Method in brief: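 Signal ratio (520/495 nm, excitation 340 nm) reports Bodipy-GDP retention on biotinylated RAS after SOS-catalyzed exchange with 3 mM GTP. SOS was 40 nM, except 160 nM for G12V. Room-temperature exchange lasted 60 min (90 min for G12V), following a 60 min compound preincubation.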

KRAS-G12V = KRAS-G12V (Homo sapiens, UniProt P01116, G12V); assay: SOS-catalyzed nucleotide exchange assay (Procedure A, TR-FRET), KRAS-G12V; format: biochemical; conditions: nucleotide exchange, read-out: KRAS G12V GNE IC50
KRAS-G12V, sequence (P01116 with tags, fused parts or gaps isoform P01116-2 G12V): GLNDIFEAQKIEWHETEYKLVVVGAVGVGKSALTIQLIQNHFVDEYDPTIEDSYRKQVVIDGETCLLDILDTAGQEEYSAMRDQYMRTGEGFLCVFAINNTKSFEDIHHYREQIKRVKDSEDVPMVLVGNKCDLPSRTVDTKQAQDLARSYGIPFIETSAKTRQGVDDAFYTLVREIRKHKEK
Method in brief: as §1

KRAS-G13D = KRAS-G13D (Homo sapiens, UniProt P01116, G13D); assay: SOS-catalyzed nucleotide exchange assay (Procedure A, TR-FRET), KRAS-G13D; format: biochemical; conditions: nucleotide exchange, Procedure A; read-out: KRAS G13D GNE IC50
KRAS-G13D, sequence (P01116 with tags, fused parts or gaps isoform P01116-2 G13D): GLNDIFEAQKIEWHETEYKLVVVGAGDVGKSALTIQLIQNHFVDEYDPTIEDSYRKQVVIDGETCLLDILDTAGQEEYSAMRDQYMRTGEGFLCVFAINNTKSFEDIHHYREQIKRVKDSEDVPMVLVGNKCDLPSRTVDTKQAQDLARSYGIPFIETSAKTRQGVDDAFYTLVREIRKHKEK

PANC08.13 cells = assay: Cellular phospho-ERK assay, PANC08.13 cells (homozygous KRAS-G12D); format: cell-based; conditions: Homo sapiens, read-out: PANC-08.13 pERK IC50
Description: Procedure for Cellular Phospho-ERK Assay in KRAS Wild Type and Mutant (G12D, G12V) Cell Lines
MKN-1 cells (JCRB JCRB0252) containing amplified wild-type KRAS, were cultured in growth medium that contains RPMI 1640-GlutaMAX™-I (ThermoFisher Scientific 61870) containing 10% heat inactivated fetal bovine serum (ThermoFisher Scientific 10091148), 1 mM sodium pyruvate and 10 mM HEPES. PANC08.13 cells (ATCC® CRL-2551™), containing homozygous KRAS-G12D activating mutation, were cultured in growth medium made of RPMI1640-GlutaMAX™-I (ThermoFisher Scientific 61870) containing 15% heat inactivated fetal bovine serum (ThermoFisher Scientific 10091148)). AsPC-1 cells (ATCC® CRL-1682™), containing homozygous KRAS-G12D activating mutation, were cultured in T150 flask in growth medium (RPMI medium 1640-GlutaMAX™-I (ThermoFisher Scientific 61870) containing 10% fetal bovine serum (ThermoFisher Scientific 10091148)). SW620 cells (ATCC® […]), containing homozygous KRAS-G12V activating mutation, were cultured in growth medium that contains RPMI 1640-GlutaMAX™-I (ThermoFisher Scientific 61870) containing 10% heat inactivated fetal bovine serum (ThermoFisher Scientific 10091148).
Cells for the assay were harvested in growth medium after TrypLE (ThermoFisher scientific 12604021) digestion and were seeded in a 384-well collagen coated cell culture plate (Corning 356702) at a density of 10,000-15,000 cells/20 μL/well, and incubated at 37° C., 5% CO2 overnight. The compound (with 10 mM stock concentration) dose-response titrations were prepared [30 μM final ERK detection assay concentration and 1:3 dilutions, 10-point dose response] and appropriate amounts (270 nL) of test compounds were dispensed in a 384-well intermediate plate using an Echo 550 liquid handler. 30 μL/well of RPMI medium 1640-GlutaMAX™—I was added to the intermediate plate and the contents of the intermediate plate (10 μL/well) were then transferred to the 384-well collagen coated cell culture plate, which was incubated at 37° C., 5% CO2 for 2 hours. After removal of medium from the collagen coated cell culture plate, cells were lysed in lysis buffer from Alpha SureFire® Ultra™ Multiplex p-ERK and total ERK assay kit (PerkinElmer MPSU-PTERK) containing Halt™ Protease and Phosphatase inhibitor cocktail (ThermoFisher Scientific 78446) at room temperature with constant shaking at 300 rpm for 30 minutes. The cell lysates were then transferred to an OptiPlate-384 plate (PerkinElmer 6005620), and the phosphorylation of ERK (p-ERK) and total ERK levels were detected by Alpha SureFire® Ultra™ Multiplex p-EEK kit and total ERK assay kit (PerkinElmer MPSU-PTERK) following the manufacturer's protocol. Assay plates were read on a En Vision Multimode Plate Reader (PerkinElmer), and the ratio of p-ERK vs. total ERK in each well was used as the final readout. Dose response curves were analyzed using a 4-parameter logistic model to calculate IC50 values using Spotfire software.

[2] = PANC-08-13, 2 hours compound incubation

KRAS-WT, sequence (P01116 with tags, fused parts or gaps isoform P01116-2): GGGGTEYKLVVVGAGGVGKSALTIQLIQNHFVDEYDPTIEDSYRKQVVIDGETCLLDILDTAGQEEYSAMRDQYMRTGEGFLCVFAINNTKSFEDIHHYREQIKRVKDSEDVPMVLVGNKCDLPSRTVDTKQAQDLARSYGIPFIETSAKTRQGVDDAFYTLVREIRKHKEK

| SMILES | IC50 (KRAS-WT) [nM] | IC50 [1] [nM] | IC50 (KRAS-G12D) [nM] | IC50 (KRAS-G12V) [nM] | IC50 (KRAS-G13D) [nM] | IC50 (PANC08.13 cells; PANC-08-13, KRAS-G12D, 2 hours) [nM] | IC50 (PANC08.13 cells; [2]) [nM] |
| --- | --- | --- | --- | --- | --- | --- | --- |
| Cc1cc2[nH]ncc2c(-c2cncc3c2sc2nc(OC[C@@]45CCCN4C[C@H](F)C5)nc(N4CCOC[C@@](C)(O)C4)c23)c1C(F)(F)F [Ex-273, (6S)-4-(2-(((2R,7aS)-2-fluorotetrahydro-1H-pyrrolizin-7a(5H)-yl)methoxy)-8-(6-methyl-5-(trifluoromethyl)-1H-indazol-4-yl)pyrido[3′,4′:4,5]thieno[2,3-d]pyrimidin-4-yl)-6-methyl-1,4-oxazepan-6-ol] | 1230 | 456 | 360 | 574 | 1100 | 562 | – |
| Cc1cc2[nH]ncc2c(-c2nccc3c2oc2nc(OC[C@]4(CN(C)C)CC4(F)F)nc(N4CCOC[C@@](C)(O)C4)c23)c1C(F)(F)F [Ex-291, (6S)-4-(2-(((R)-1-((dimethylamino)methyl)-2.2-difluorocyclopropyl)meth-oxy)-8-(6-methyl-5-(trifluoromethyl)-1H-indazol-4-yl)pyrido[4′,3′:4,5]furo[2,3-d]pyrimidin-4-yl)-6-methyl-1,4-oxazepan-6-ol] | 377 | 116 | 153 | 207 | 210 | 306 | – |
| C[C@@]1(O)COCCN(c2nc(OC[C@@]34CCCN3C[C@H](F)C4)nc3sc4c(-c5c(C(F)F)c(Cl)cc6[nH]ncc56)nccc4c23)C1 [Ex-133, (6S)-4-(8-(6-chloro-5-(difluoromethyl)-1H-indazol-4-yl)-2-(((2R,7aS)-2-fluoro-tetrahydro-1H-pyr-rolizin-7a(5H)-yl)-methoxy)pyrido [4′,3′:4,5]thieno [2,3-d]pyrimidin-4-yl)-6-methyl-1,4-oxazepan-6-ol] | 250 | 47.1 | 120 | 130 | 110 | – | 279 |
| Cc1cc2[nH]nc(C#N)c2c(-c2nccc3c4c(N5CCOC[C@@](C)(O)C5)nc(OC[C@@]56CCCN5C[C@H](F)C6)nc4n(C)c23)c1C(F)(F)F (single isomer, unassigned) [Ex-4] | 568 | 124 | 339 | 536 | 430 | 1640 | – |
| Cc1nc2[nH]ncc2c(-c2nccc3c4c(N5CCOC[C@@](C)(O)C5)nc(OC[C@@]56CCCN5C[C@H](F)C6)nc4n(C)c23)c1C(F)(F)F [Ex-14, (6S)-4-(2-(((2R,7aS)-2-fluorotetrahydro-1H-pyrrolizin-7a(5H)-yl)methoxy)-9-methyl-8-(6-methyl-5-(trifluoromethyl)-1H-pyrazolo[3,4-b]pyridin-4-yl)-9H-pyrido[4′,3′:4,5]pyrrolo[2,3-d]pyrimidin-4-yl)-6-methyl-1,4-oxazepan-6-ol] | 681 | 233 | 276 | 404 | 543 | 561 | – |
| Cc1cc2c3c(N4CCOC[C@@](C)(O)C4)nc(OC[C@@]45CCCN4C[C@H](F)C5)nc3n(C)c2c(-c2c(C(F)(F)F)c(C)cc3[nH]ncc23)n1 (single isomer, unassigned) [Ex-28] | 973 | 275 | 629 | 934 | 541 | 2040 | – |
| Cc1cc2[nH]ncc2c(-c2nccc3c2oc2nc(OC[C@@]45CCCN4C[C@H](F)C5)nc(N4CCOC[C@@](C)(O)C4)c23)c1C(F)(F)F [Ex-290, (6S)-4-(2-(((2R,7aS)-2-fluorotetrahydro-1H-pyrrolizin-7a(5H)-yl)methoxy)-8-(6-methyl-5-(trifluoromethyl)-1H-indazol-4-yl)pyrido[4′,3′:4,5]furo[2,3-d]pyrimidin-4-yl)-6-methyl-1,4-oxazepan-6-ol] | 1400 | 175 | 611 | 365 | 1030 | 2330 | – |
| C[C@@]1(O)COCCN(c2nc(OC[C@@]34CCCN3C[C@H](F)C4)nc3sc4c(-c5ccc(F)c6sc(N)c(C#N)c56)cncc4c23)C1 [Ex-274, 2-amino-7-fluoro-4-(2-(((2R,7aS)-2-fluorotetrahydro-1H-pyrrolizin-7a(5H)-yl)methoxy)-4-((S)-6-hydroxy-6-methyl-1,4-oxazepan-4-yl)pyrido[3′,4′:4,5]thieno[2,3-d]pyrimidin-8-yl)benzo[b]thiophene-3-carbonitrile] | 330 | 121 | 671 | 401 | 87.6 | 1010 | – |
| Cc1cc2[nH]ncc2c(-c2nccc3c2sc2nc(OC[C@@]45CCCN4C[C@H](F)C5)nc(N4CCOCC4)c23)c1C(F)(F)F [Ex-179, 4-(2-(((2R,7aS)-2-fluorotetrahydro-1H-pyrrolizin-7a(5H)-yl)methoxy)-8-(6-methyl-5-(trifluoromethyl)-1H-indazol-4-yl)pyrido[4′,3′:4,5]thieno[2,3-d]pyrimidin-4-yl) morpholine] | 2760 | 124 | 7600 | 1600 | 1320 | – | 3900 |
| Cn1c2nc(OC[C@@]34CCCN3C[C@H](F)C4)nc(N3CCOC[C@@](C)(O)C3)c2c2ccnc(-c3c(C(F)F)c(Cl)cc4[nH]nc(C#N)c34)c21 (single isomer, unassigned) [Ex-12] | 5930 | 584 | 2150 | 2960 | 2650 | 6060 | – |
| Cc1cc2[nH]nc(C)c2c(-c2nccc3c4c(N5CCOC[C@@](C)(O)C5)nc(OC[C@@]56CCCN5C[C@H](F)C6)nc4n(C)c23)c1C(F)F (single isomer, unassigned) [Ex-8] | 2250 | 1190 | 1500 | 1650 | 2090 | 1430 | – |
| C#Cc1c(F)ccc2nc(N)cc(-c3nccc4c3sc3nc(OC[C@@]56CCCN5C[C@H](F)C6)nc(N5CCOC[C@@](C)(O)C5)c34)c12 [Ex-178, (S)-4-(8-(2-amino-5-ethynyl-6-fluoroquinolin-4-yl)-2-(((2R,7aS)-2-fluorotetrahydro-1H-pyrrolizin-7a(5H)-yl)methoxy)pyrido[4′,3′: 4.5]thieno[2,3-d]pyrimidin-4-yl)-6-methyl-1,4-oxazepan-6-ol] | 1280 | 241 | 906 | 657 | 1060 | – | 1700 |
| Cc1cc2[nH]ncc2c(-c2nccc3c4c(N5CCOCC(O)C5)nc(OC[C@@]56CCCN5C[C@H](F)C6)nc4n(C)c23)c1C(F)(F)F (single isomer, unassigned) [Ex-23] | 1200 | 190 | 1430 | 657 | 789 | 3060 | – |
